The values that follow come from US10899741B2, “3,4-bipyridyl pyrazole derivative, and preparation method therefor and medical application thereof” (Jiangsu Hengrui Medicine Co., Ltd., priority 2016, dated 2021).

Assay [1] has as its system Smad signaling pathway of TGFβRI. As to the kind of experiment: Inhibition of Smad signaling pathway of TGFβRI (3TP-lux luciferase reporter in HepG2 cells). It is filed as cell-based. As to conditions: HepG2, 3TP-lux plasmid, 18 hours; for IC50: Homo sapiens. As for the experimental part: The inhibition effect of the compounds of the present invention on Smad signaling pathway of TGFβRI was determined by the following in vitro test.
The inhibition effect of the compounds of the present invention on Smad signaling pathway of TGFβRI was determined by the following experimental method:
On a 96-well plate, 100 μL of HepG2 cell (TCHu 72, Cell Bank of Typical Culture Collection Committee of Chinese Academy of Sciences) was seeded on an EMEM medium containing 10% FBS (42360-099, Gibco) in each well. The seeding density is 2.5×10^4 cells/well. The cells were incubated overnight at 37° C., in 5% CO2. Each well was replaced with fresh EMEM medium containing 10% FBS. 0.1 μg of 3TP-lux plasmid (11767, Biovector Science Lab, Inc.) was transfected in each well. The cells were further incubated for 24 hours at 37° C., in 5% CO2. Each well was replaced with 90 μL of EMEM medium containing 0.5% FBS, then the cells were starved for 6 hours. The compounds were formulated as a 20 mM stock solution, which was diluted in gradient to a 400× concentration with 100% DMSO, and further 40-fold diluted with EMEM containing 0.5% FBS. The cell culture plate was taken out, then 10 μl of diluted compound or control (0.25% DMSO) was added to each well respectively. The plate was shaken gently, then incubated for 18 hours in an incubator at 37° C., in 5% CO2. Finally, 100 μl of detection reagent ONE-Glo™ Luciferase Assay (E6110, Promega) was added to each well, and the plate was placed in dark at room temperature for 10 minutes. The chemiluminescence signal values were measured with a Victor 3.0 (PerkinElmer). The IC50 values of the compounds were calculated using Graphpad Prism software based on each concentration of the compound and the corresponding signal value thereof.
(In general: In a reporter assay the amount or activity of a reporter protein is the signal.)

A further assay addresses TGFβRI kinase ALK5 (Homo sapiens (Human), UniProt P36897). Kind of assay: Inhibition of TGFβRI kinase ALK5 activity (ADP-Glo kit). The class given is biochemical. The note with it: ATP 50 μM, 27° C. 2.5 hours. As for the experimental part:
The inhibition effect of TGFβRI kinase activity in vitro was determined by the following method.
The inhibition effect of the compounds of the present invention on TGFβRI kinase ALK5 activity was determined by the following experimental method:
TGFβRI kinase assay kit (V4093, Promega) was used to assay enzyme activity. 2 μl of enzyme solution (the final concentration of enzyme in the reaction system was 2 ng/μL) formulated with reaction buffer (40 mM Tris pH 7.5, 20 mM MgCl2, 0.1 mg/ml BSA), 1 μl of a 3-fold gradient dilution of the compounds dissolved in 5% DMSO, and 2 μl of a mixed solution of ATP and TGFβRI substrate peptide (the final concentration of ATP was 50 μM, and the final concentration of substrate was 0.2 μg/μL) were added successively to a 384-well plate (4514, Corning). After reaction at 27° C. for 2.5 hours, 5 μl of ADP-Glo solution in the kit was added to each well, then the plate was placed at 27° C. for 40 minutes. 10 μl of kinase assay reagent was then added to each well, then the plate was placed at 27° C. for 30 minutes. The chemiluminescence signal values were measured with a Victor 3 (PerkinElmer) multi-function microplate reader. The IC50 values of the compounds for enzyme inhibition were calculated using Graphpad prism software based on each concentration of the compound and the corresponding signal value thereof.
(In general: ADP-Glo turns the ADP formed in a reaction into a luminescent signal.)

The test system of the next assay is NIH3T3 cell. As to the kind of experiment: Inhibition of NIH3T3 cell proliferation (CellTiter-Glo). It is filed as cell-based. The note with it: NIH3T3, 72 hours, 0.5% FBS; for IC50: Mus musculus. As for the experimental part: The inhibition effect of the compounds of the present invention on NIH3T3 cell proliferation was determined by the following in vitro test.
The inhibition effect of the compounds of the present invention on NIH3T3 cell proliferation was determined by the following experimental method:
On a 96-well white plate with transparent bottom (3903, Corning), 100 μL of NIH3T3 cell (GNM6, Cell Bank of Typical Culture Collection Committee of Chinese Academy of Sciences) was seeded in a DMEM medium containing 10% FBS (SH1-30243.01, GE) in each well. The seeding density is 2000 cells/well. The cells were incubated overnight at 37° C., in 5% CO2. After overnight incubation, each well was replaced with 90 μL of DMEM medium containing 0.5%0 FBS. 10 μl of a 3-fold gradient dilution of the compounds with DMEM medium containing 0.5% FBS was then added, and the plate was incubated for 72 hours in a cell incubator at 37° C., in 5% CO2. Finally, 50 μL of CellTiter-Glo (G7573, Promega) was added to each well. After incubation for 10 minutes at room temperature, the chemiluminescence signal values were measured with a Victor 3 microplate reader (PerkinElmer). The IC50 values of the compounds were calculated using Graphpad Prism software based on each concentration of the compound and the corresponding signal value thereof.

TGFβRI kinase ALK5, sequence (P36897 34-503): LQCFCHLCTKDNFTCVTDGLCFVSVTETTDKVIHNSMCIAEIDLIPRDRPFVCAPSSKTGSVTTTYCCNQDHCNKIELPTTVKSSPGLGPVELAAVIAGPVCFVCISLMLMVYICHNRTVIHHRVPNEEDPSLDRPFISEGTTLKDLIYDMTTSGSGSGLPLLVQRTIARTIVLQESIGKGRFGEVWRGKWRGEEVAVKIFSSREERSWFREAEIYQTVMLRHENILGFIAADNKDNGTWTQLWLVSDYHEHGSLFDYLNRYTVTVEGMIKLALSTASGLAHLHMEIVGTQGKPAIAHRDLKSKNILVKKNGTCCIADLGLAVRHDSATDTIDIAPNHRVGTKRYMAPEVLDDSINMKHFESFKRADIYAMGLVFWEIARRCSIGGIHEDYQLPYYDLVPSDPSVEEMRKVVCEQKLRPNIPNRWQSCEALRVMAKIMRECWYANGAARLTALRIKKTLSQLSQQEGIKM

`Cc1cccc(-c2nn(C3CC3)cc2-c2ccnc(-c3ccc(C#N)cc3)c2)n1` [Example 7, 4-(4-(1-Cyclopropyl-3-(6-methylpyridin-2-yl)-1H-pyrazol-4-yl)pyridin-2-yl)benzonitrile]: in assay [1], the “Maximum inhibition rate (%)” value is on record as 98% and the IC50 stood at 168 nM.
Turning to `Cc1cccc(-c2nn([C@@H]3CCN(S(C)(=O)=O)C3)cc2-c2ccnc(-c3ccc(S(C)(=O)=O)cc3)c2)n1` [Example 8, (R)-4-(3-(6-Methylpyridin-2-yl)-1-(1-(methylsulfonyl)pyrrolidin-3-yl)-1H-pyrazol-4-yl)-2-(4-(methylsulfonyl)phenyl)pyridine], the “Maximum inhibition rate (%)” value in assay [1] is on record as 98%; with NIH3T3 cell, 114%. In addition, the 50% inhibitory concentration (IC50) was 218 nM in assay [1], 370 nM against TGFβRI kinase ALK5 and 490 nM in the assay on NIH3T3 cell.
For `Cc1cccc(-c2nn(C3CCCC3)cc2-c2ccnc(-c3ccc(S(C)(=O)=O)cc3)c2)n1` [Example 3, 4-(1-Cyclopentyl-3-(6-methylpyridin-2-yl)-1H-pyrazol-4-yl)-2-(4-(methylsulfonyl)phenyl)pyridine], the “Maximum inhibition rate (%)” value in assay [1] was 101%; in the assay on NIH3T3 cell, 105%. For the same compound, the IC50 was determined as 57 nM in assay [1], 241 nM at TGFβRI kinase ALK5 and 366 nM with NIH3T3 cell.

Usually IC50 stands for the concentration at which inhibition is half-maximal. A high value points to lower potency.
